Experimental findings from patent US7629385B2, “Sphingolipid-derived pharmaceutical compositions” (priority 2004, dated 2009) are described below.

Test [1] relates to vesicular stomatitis virus (VSV). It counts as cell-based. The settings on record: HeLa cells.
Another test concerns Raft liposomes. Briefly: Disrafter-Liposome Raftophile Assay (D-LRA). As to conditions: test compound 100 μM.
A further test concerns PR8 virus. Briefly: microbe, parasite or virus in culture. The format is cell-based, influenza virus.
A further test concerns RBL-2H3 cells. As to the kind of experiment: Degranulation assay (β-hexosaminidase release). The format is cell-based, rat.
The next test relates to Influenza virus. Briefly: Virus budding assay (influenza assay). As to conditions: MDCK cells. The format is cell-based.
The next test has as its system HIV-1 strain NL4-3. As to the kind of experiment: HIV assay: infection of HeLa TZM cells. It counts as cell-based. The settings on record: Human immunodeficiency virus 1, NL43, vs solvent.
[2] abbreviates: unidentified influenza virus, PR8, MDCK, read-out: inhibition of PR8 virus replication.
Where [3] appears, read: Rattus norvegicus, RBL-2H3, 25 μM, vs solvent vehicle.

Structures are written as SMILES.

Description for Raft liposomes: The raftophilicity of certain fluorescent indicators varies with the raft content of liposomes which, in turn, is determined by their lipid composition and the presence of raft modulators.
The D-LRA assay detects two extremes of raft modulation, disrafting and raft augmentation. % disrafting below 0 results from an actual increase in partition of the indicator, caused by an increased raft content of the liposomes. […] Significance can be ascribed to values above 25% (disrafting) and below −25% (disrafters by “augmentation”).
Liposomes (defined below) with a raft content of about 50% are incubated with potential disrafters. The change in raft content is then determined with an indicator (standard raftophile).
Raft liposomes: (35% cholesterol, 10.5% shingomyelin (SM), 3.5% GM1, 25.5% phosphatidylethanolamine (PE) and 25.5% phosphatidylcholine (PC))
Non-raft liposomes: N liposomes (50% PE, PC)
Liposomes are prepared by spreading lipids dissolved in tert. butanol on a glass surface at 50° C. in a rotary evaporator rinsed with nitrogen. After 6 h desiccation the lipids are taken up in 40 mM octyl-β-D-glucoside (OG) to a concentration of 1 mg/ml and dialysed for 24 h against 2 changes of 5 I PBS with 25 g Biobeads (Amberlite XAD-2) at 22° C.
Indicators are fluorescent compounds which preferentially partition into rafts. These are selected to represent different structural classes, and different excitation/emission wavelengths. This is important when raft modulators are tested which interfere with indicator fluorescence.
Perylene is a raftophilic compound which embeds completely into membranes.
GS-96 is a raftophilic adduct of the general structure cholesterol-linker-rhodamine-peptide (only the cholesterol is membrane-inserted).
N and R Liposomes were diluted into PBS to a final lipid concentration of 200 μg/ml and 100 μl aliquots preincubated 30 min 37° C. on a thermomixer (1000 rpm).
1 μl of DMSO (solvent controls) and the test compound stock solutions (all 10 mM in DMSO, except where noted) were added and incubated 2 h as above.
1 μl indicator in DMSO was then added (final indicator concentrations GS-96 0.2 μM, perylene 2 μM) and incubation continued for 1 h as above
Incubation mixes were centrifuged 20 min in the TLA-100 rotor of the Beckman Optima centrifuge at 400 000 g (37° C.).

With `CCCCCCCCCCCCC/C=C/[C@@H](O)[C@H](CO)NC(=O)COCCOC` [Compound 10a], the “effect on viral infection in the VSV counterscreen” value in test [1] is listed as “no inhibitory effect on viral infection at all”. Further, the “Disrafting Activity [%]” value in the test with Raft liposomes (perylene as marker) is reported as 99.2%.

For the compound `CCCCCCCCCCCCC/C=C/[C@@H](O)[C@H](CO)NC(=O)[C@H]1CC[C@H](C(C)(C)C)CC1` [Compound 10e, N-(trans-4-tert-butylcyclohexylcarbonyl)-D-erythro-sphingosine], the inhibition at 10 µM in the test with PR8 virus (setting [2]) worked out at 21%.

As for `CCCCCCCCCCCCCC=CC(O)C(CO)NC(=O)COCCOCCOCCOCCOC` [Compound 10g, N-(3,6,9,12,15-Pentoxahexadecanoyl)-D-erythro-sphingosine], the “inhibition of PR8 virus replication” value in the test with PR8 virus (20 μM, MDCK cells, vs solvent vehicle) came to 70%. For the same compound, the “activity in the mast cell degranulation assay (words)” value in the test with RBL-2H3 cells is recorded as “strongly inhibitory”. For the same compound, the “inhibition of the release of β-hexosaminidase” value with RBL-2H3 cells (25 μM, vs solvent vehicle) is on record as 65%. Also, the “Disrafting Activity [%]” value in the test on Raft liposomes (perylene as marker) is given as 89.3%.

For the compound `CCCCCCCCCCCCC/C=C/[C@@H](O)[C@H](CO)NC(=O)COCCOC` [Compound 10h, N-(3,6-Dioxaheptanoyl)-D-erythro-sphingosine], the “result in the virus budding assay” value in the test on Influenza virus was “particularly good results”. Also, the inhibition at 20 µM with PR8 virus (setting [2]) is 75%. This compound had an inhibition at 25 µM in the test with RBL-2H3 cells (setting [3]) of 71%. In addition, the “Disrafting Activity [%]” value in the test on Raft liposomes (perylene as marker) turned out to be 72.2%.

As for `CCCCCCCCCCCCC/C=C/[C@@H](OC)[C@H](CO)NC(=O)CCCCC` [Compound 10k], the inhibition at 20 µM with PR8 virus (setting [2]) came to 59.3%. For the same compound, the “Disrafting Activity [%]” value with Raft liposomes (perylene as marker) came to 98.6%.

In turn, `CCCCCCCCCCCCC/C=C/[C@@H](OC)[C@@H](N)CO` [Compound 10l, 3-Methylated D-erythro-sphingosine] showed an inhibition at 25 µM with RBL-2H3 cells (setting [3]) of 84%.

As for `CCCCCCCCCCCCC/C=C/[C@@H](O)[C@H](CO)NCCCCCCCCCCCCCCCC` [Compound 10n], the inhibition at 100 µM in the test on PR8 virus (setting [2]) was determined as 34.7%. Also, in the test with Raft liposomes (perylene as marker), the “Disrafting Activity [%]” value is 94.8%.

Regarding `CCCCCCCCCCCCC/C=C/[C@H](O)[C@H](CO)NCCCCCCCCCCCCCCCC` [Compound 10o], the inhibition at 100 µM with PR8 virus (setting [2]) came to 40.8%. In addition, the “Disrafting Activity [%]” value in the test with Raft liposomes (perylene as marker) was 91.0%.

Take `CCCCCCCCCCCCC/C=C/[C@@H](O)[C@H](CO)NC(=O)/C=C(\C)CC/C=C(\C)CCC=C(C)C` [Compound 10p]: in the test on PR8 virus (setting [2]), the inhibition at 100 µM turned out to be 39.2%. The “Disrafting Activity [%]” value in the test on Raft liposomes (GS-96 as marker) was determined as 58.9%.

Take `CCCCCCCCCCCCC/C=C/[C@@H](OC)[C@H](CO)NC(=O)/C=C(\C)CC/C=C(\C)CCC=C(C)C` [Compound 10q]: the inhibition at 100 µM in the test on PR8 virus (setting [2]) was found to be 61.6%.

Take `CCCCCCCCCCCCC/C=C/[C@@H](O)[C@H](CO)NC(=O)COC` [Compound 10u]: the inhibition at 20 µM in the test with PR8 virus (setting [2]) was determined as 70.3%. For the same compound, at 25 µM the inhibition with RBL-2H3 cells (setting [3]) was 63%. The “Disrafting Activity [%]” value with Raft liposomes (perylene as marker) was 97.0%.

In the case of `CCCCCCCCCCCCC/C=C/[C@@H](OC)[C@H](CO)NC(=O)COCCOCCOCCOCCOC` [Compound 10v], in the test with PR8 virus (influenza), the “inhibition of viral reproduction” value is “very effective inhibition of the viral reproduction”. The results for the inhibition at 20 µM in the test on PR8 virus (setting [2]) and in the test with HIV-1 strain NL4-3 were 87.4% and 45%, respectively. In the test with RBL-2H3 cells (Rattus norvegicus, RBL-2H3, 12.5 μM, vs solvent vehicle), this compound had an inhibition at 12.5 µM of 74%. Further, the “Disrafting Activity [%]” value in the test with Raft liposomes (perylene as marker) is given as 96.1%.

`CCCCCCCCCCCCC/C=C/[C@@H](O)[C@H](CO)NC(=O)CCOCCOCCOCCOCCN` [Compound 10w]: the inhibition at 25 µM with PR8 virus (setting [2]) amounted to 50.3%. The same compound had an inhibition at 6.25 µM with RBL-2H3 cells (Rattus norvegicus, RBL-2H3, 6.25 μM, vs solvent vehicle) of 69%. This compound also displayed an inhibition at 20 µM in the test with HIV-1 strain NL4-3 of 52%. In addition, in the test with Raft liposomes (perylene as marker), the “Disrafting Activity [%]” value turned out to be 53.1%.
